19 compounds from patent US11839212B2, “Synergistic pesticidal compositions and methods for delivery of insecticidal active ingredients” (0903608 B.C. Ltd., priority 2018, dated 2023) can be followed below.

Holding throughout (assay): Synergistic Growth Inhibition Assay (MIC and FIC index, 96-well, resazurin)
Type in all cases: cell-based
In general terms: Alamar Blue is a resazurin reagent that responds to reducing activity.

The subject of one test is Botrytis cinerea. The settings on record: for MIC: Botrytis cinerea, 48 h. The method, then:
(§1) In some embodiments, the synergistic action between the pesticidal active ingredient, and the at least one C6-C10 (or alternatively C11 or C12) saturated or unsaturated aliphatic acid components of the pesticidal compositions according to embodiments of the present disclosure was tested using a Synergistic Growth Inhibition Assay, which is derived from and related to a checkerboard assay as is known in the art for testing of combinations of antimicrobial agents. In the Synergistic Growth Inhibition Assay used in accordance with some embodiments of the present disclosure, multiple dilutions of combinations of pesticidal active ingredient and at least one C6-C10 saturated or unsaturated aliphatic acid agents are tested in individual cells for inhibitory activity against a target pest or pathogenic organism. In one such embodiment, the combinations of pesticidal active ingredient and C6-C10 (or alternatively C11 or C12) saturated or unsaturated aliphatic acid agents may preferably be tested in decreasing concentrations. In a further such embodiment, the combinations of pesticidal active ingredient and C6-C10 (or alternatively C11 or C12) saturated or unsaturated aliphatic acid agents may be tested in increasing concentrations. These multiple combinations of the pesticidal active ingredient and at least one C6-C10 (or alternatively C11 or C12) saturated or unsaturated aliphatic acid agents may be prepared in 96-well microtiter plates. In one such embodiment, the Synergistic Growth Inhibition Assay then comprises rows which each contain progressively decreasing concentrations of the pesticidal active ingredient and one or more C6-C10 (or alternatively C11 or C12) saturated or unsaturated aliphatic acid agents to test for the MIC of the agents in combination at which growth of the target pest or pathogen is inhibited. Thus, each well of the microtiter plate is a unique combination of the two agents, at which inhibitory efficacy of the combination against the target pest or pathogen can be determined.
(§2) In one embodiment according to the present disclosure, for each row of microtiter cells in the Synergistic Growth Inhibition Assay, the FIC index is calculated from the lowest concentration of the pesticidal active ingredient and one or more C6-C10 saturated or unsaturated aliphatic acid agents necessary to inhibit growth of a target pest or pathogen. The FIC of each component is derived by dividing the concentration of the agent present in that well of the microtiter plate by the minimal inhibitory concentration (MIC) needed of that agent alone to inhibit growth of the target pest or pathogen. The FIC index is then the sum of these values for both agents in that well of the microtiter plate. […] Fractional inhibitory concentration indices may then used as measure of synergy. […] When the FIC index is equal to 1, the combination is additive.
(§3) Then, serial dilutions of these initial compositions in successive wells in the row of the microtiter plate were used to assay the pesticidal composition under the same conditions to determine the concentration of the composition combining the two agents corresponding to the microtiter well in which growth inhibition of the target pest or organism ceases.
Similarly to as described above, Resazurin was used as an indicator of growth or inhibition of growth of Botrytis cinerea in the exemplary Synergistic Growth Inhibition Assay. In addition to the color change of the resazurin, an optical or visual examination of the microtiter well may also be made to additionally determine the presence of growth or inhibition of growth of the Botrytis cinerea.

For a further test, the system named is Fusarium oxysporum. The settings on record: Fusarium oxysporum, Compound B alone. The method, then: as §1, §2, §3
Resazurin dye (also known as Alamar blue dye) was used as an indicator to determine the presence of growth or inhibition of growth of Fusarium oxysporum in the wells of the 96 well microtiter plates used in the exemplary Synergistic Growth Inhibition Assay. In addition to the color change of the resazurin dye in the presence of growth of the Fusarium oxysporum, an optical or visual examination of the microtiter well may also be made to additionally determine the presence of growth or inhibition of growth of the Fusarium oxysporum.

The next test relates to Sclerotinia sclerotiorum. The settings on record: for MIC: Sclerotinia sclerotiorum. As for the experimental part: as §1, §2, §3
Similarly to as described above, Resazurin was used as an indicator of growth or inhibition of growth of Sclerotinia sclerotiorum in the exemplary Synergistic Growth Inhibition Assay. In addition to the color change of the resazurin, an optical or visual examination of the microtiter well may also be made to additionally determine the presence of growth or inhibition of growth of the Sclerotinia sclerotiorum.

Setting [1] is: Table 51, Compound B alone, 48 hours incubation, read-out: MIC (B).
[2] abbreviates: Table 56, Compound B alone, 48 hours incubation, read-out: MIC (B).
Setting [3] is: Table 59, Compound B alone, 48 hours incubation, read-out: MIC (B).
Setting [4] is: 48 h, Table 27, 48 hours incubation, read-out: MIC (B).
The mark [5] stands for this setting: 48 h, Table 30, 48 hours incubation, read-out: MIC (B).
The mark [6] stands for this setting: Table 20B, Compound A alone, incubation 7 days, read-out: MIC (A).
The mark [7] stands for this setting: Table 24, Compound B alone, 48 hours incubation, read-out: MIC (B).
The mark [8] stands for this setting: Table 25, Compound B alone, 48 hours incubation, read-out: MIC (B).
Where [9] appears, read: Table 26, Compound B alone, 48 hours incubation, read-out: MIC (B).
Where [10] appears, read: Table 54, Compound B alone, 48 hours incubation, read-out: MIC (B).

The structures appear in SMILES notation. Where two headings read alike, the source gives them in different places.

The MIC is the least concentration at which growth counts as inhibited.

For the compound `CON=C(C(=O)OC)c1ccccc1CON=C(C)c1cccc(C(F)(F)F)c1` [Trifloxystrobin, reference compound], the MIC with Botrytis cinerea (Table 58, Compound A alone, 48 hours incubation, read-out: MIC (A)) turned out to be 250 µg/mL; in the test with Botrytis cinerea (Table 59, Compound A alone, 48 hours incubation, read-out: MIC (A)) it was 250 µg/mL.

As to `CCCCCCCCC(C)C(=O)O` (stereo not drawn) [2-Methyldecanoic acid], the MIC came to 7.81 µg/mL in the test with Botrytis cinerea (setting [1]), 125 µg/mL in the test with Botrytis cinerea (setting [2]) and 125 µg/mL with Botrytis cinerea (setting [3]).

Regarding `CCCCC/C=C/C(=O)O` [Trans-2-octenoic acid, trans-2-octenoic acid], the MIC in the test on Fusarium oxysporum (24 h, Table 3, 24 hour incubation, read-out: MIC(B)) stood at 149 µg/mL; with Fusarium oxysporum (24 h, Table 4, 24 hour incubation, read-out: MIC (B)), 149 µg/mL; in the test with Fusarium oxysporum (setting [4]) it was 312 µg/mL; with Fusarium oxysporum (setting [5]), 156 µg/mL; with Fusarium oxysporum (48 h, Table 31, 48 hours incubation, read-out: MIC (B)) it was 156 µg/mL; with Fusarium oxysporum (48 h, Table 32, 48 hours incubation, read-out: MIC (B)), 312 µg/mL.

`CCCCCCCCC(O)C(=O)O` (stereo not drawn) [2-Hydroxydecanoic acid]: the MIC in the test on Botrytis cinerea (setting [3]) stood at 312 µg/mL.

Regarding `CCC(CC)(CC)C(=O)O` [2,2-Diethylbutanoic acid], the MIC with Botrytis cinerea (setting [1]) and with Botrytis cinerea (setting [3]) was 250 µg/mL throughout.

Consider `CCCCCCCCCC(=O)[O-].[K+]` [Decanoic acid, potassium salt, decanoic acid, potassium salt], for which the minimum inhibitory concentration (MIC) with Fusarium oxysporum (24 h, read-out: MIC(B), Table 7, 24 hour incubation) was 78.1 µg/mL; in the test with Fusarium oxysporum (read-out: MIC (B), Table 8), 78.1 µg/mL.

Turning to `C/C=C/C=C/C(=O)[O-].[K+]` [(2E,4E)-2,4-hexadienoic acid, potassium salt], the MIC is 625 µg/mL in the test with Fusarium oxysporum (24 h, read-out: MIC (B), Table 2, 24 hour incubation) and 625 µg/mL with Fusarium oxysporum (24 h, read-out: MIC(B), Table 1, 24 hour incubation).

For the compound `CCCCCCC(C)C(=O)O` (stereo not drawn) [2-Methyloctanoic acid], the MIC is 39.1 µg/mL with Botrytis cinerea (setting [1]), 312 µg/mL in the test on Botrytis cinerea (setting [2]) and 78.1 µg/mL in the test on Botrytis cinerea (setting [3]).

Consider `CCCCCCCC/C=C\CCCCCCCC(=O)O` [(9Z)-octadecenoic acid], for which the “MIC (B)” value in the test on Botrytis cinerea (Table 49, Compound B alone, 48 hours incubation) came to 5000 µg/mL; with Botrytis cinerea (Table 50, Compound B alone, 48 hours incubation), 5000 µg/mL; with Sclerotinia sclerotiorum (Table 33, Compound B alone, 7 days incubation), 5000 µg/mL.

In the case of `COCC(=O)N(c1c(C)cccc1C)C(C)C(=O)OC` (stereo not drawn) [Metalaxyl, reference compound], the MIC was 316 µg/mL with Botrytis cinerea (Table 23, Compound A alone, incubation 48 hours, read-out: MIC (A)); 316 µg/mL in the test with Botrytis cinerea (Table 26, Compound A alone, 48 hours incubation, read-out: MIC (A)); 316 µg/mL in the test with Botrytis cinerea (Table 48, Compound A alone, 48 hours incubation, read-out: MIC (A)); 1260 µg/mL with Sclerotinia sclerotiorum (setting [6]).

Turning to `CCCCCCCCCCCC(=O)O` [Dodecanoic acid, dodecanoic acid], the MIC turned out to be 25 µg/mL with Botrytis cinerea (Table 21, Compound B alone, incubation 48 hours, read-out: MIC (B)); 50 µg/mL in the test on Botrytis cinerea (setting [7]); 50 µg/mL with Botrytis cinerea (setting [8]); 50 µg/mL in the test with Botrytis cinerea (setting [9]); 50 µg/mL with Botrytis cinerea (setting [10]); 50 µg/mL in the test on Botrytis cinerea (setting [2]). Moreover, the MIC in the test on Sclerotinia sclerotiorum (Table 16, Compound B alone, incubation 7 days, read-out: MIC (B)) stood at 50 µg/mL; in the test on Sclerotinia sclerotiorum (Table 17, Compound B alone, incubation 7 days, read-out: MIC (B)), 50 µg/mL; in the test with Sclerotinia sclerotiorum (Table 18, Compound B alone, incubation 7 days, read-out: MIC (B)), 50 µg/mL; in the test on Sclerotinia sclerotiorum (Table 20A, Compound B alone, incubation 7 days, read-out: MIC (B)), 25 µg/mL.

As to `CCCC1COC(Cn2cncn2)(c2ccc(Cl)cc2Cl)O1` (stereo not drawn) [Propiconazole, reference compound], the MIC in the test on Botrytis cinerea (Table 24, Compound A alone, 48 hours incubation, read-out: MIC (A)) is 89 µg/mL; in the test on Sclerotinia sclerotiorum (Table 18, Compound A alone, incubation 7 days, read-out: MIC (A)) it was 89 µg/mL; with Sclerotinia sclerotiorum (setting [6]) it was 89 µg/mL; in the test on Sclerotinia sclerotiorum (Table 39, Compound A alone, 7 days incubation, read-out: MIC (A)) it was 89 µg/mL.

Take `CCCCC(O)C(=O)O` (stereo not drawn) [2-hydroxyhexanoic acid]: the MIC with Botrytis cinerea (setting [3]) came to 1250 µg/mL.

Regarding `Cc1cc(C(F)(F)F)nn1CC(=O)N1CCC(c2nc(C3=NOC(c4c(F)cccc4F)C3)cs2)CC1` (stereo not drawn) [Oxathiapiprolin, reference compound], the “MIC (A)” value in the test with Botrytis cinerea (Table 55, Compound A alone, 48 hours incubation) is 500 µg/mL.

As for `CCCCCCC/C=C\C(=O)O` [Cis-2-decenoic acid], in the test on Sclerotinia sclerotiorum (Table 34, Compound B alone, 7 days incubation, read-out: MIC (B)), the MIC was 19.5 µg/mL.

Regarding `O=C(O)CCCCCCCO` [8-Hydroxyoctanoic acid], the MIC in the test on Botrytis cinerea (read-out: MIC (B), Table 51, Compound B alone, 48 hours incubation) amounted to 1250 µg/mL; with Botrytis cinerea (read-out: MIC (B), Table 56, Compound B alone, 48 hours incubation), 2500 µg/mL; in the test on Botrytis cinerea (read-out: MIC (B), Table 59, Compound B alone, 48 hours incubation), 1250 µg/mL.

`CC=CCCC(=O)O` [4-Hexenoic acid]: the MIC is 312 µg/mL with Fusarium oxysporum (setting [4]); 312 µg/mL in the test with Fusarium oxysporum (setting [5]); 312 µg/mL with Botrytis cinerea (Table 43, Compound B alone, 48 hours incubation, read-out: MIC (B)); 312 µg/mL in the test with Botrytis cinerea (Table 45, Compound B alone, 48 hours incubation, read-out: MIC (B)).

`CCCCCCCC/C=C\CCCCCCCC(=O)O` [Oleic acid]: the minimal inhibitory concentration (MIC) with Botrytis cinerea (setting [10]) and with Botrytis cinerea (setting [2]) was 5000 µg/mL throughout.

`CCCCCCCCCC(=O)O` [Decanoic acid, decanoic acid]: the MIC turned out to be 78.1 µg/mL with Botrytis cinerea (Table 22, Compound B alone, incubation 48 hours, read-out: MIC (B)); 312 µg/mL with Botrytis cinerea (setting [7]); 15.6 µg/mL in the test on Botrytis cinerea (setting [8]); 78.1 µg/mL with Botrytis cinerea (setting [9]); 15.6 µg/mL in the test on Botrytis cinerea (Table 52, Compound B alone, 48 hours incubation, read-out: MIC(B)); 15.6 µg/mL in the test on Botrytis cinerea (setting [10]).
